Data: ChEMBL document CHEMBL4304811, “Development of a Water-Soluble Indolylmaleimide Derivative IM-93 Showing Dual Inhibition of Ferroptosis and NETosis” (ACS Med Chem Lett, 2019)

Key:
[1] = target: Ribosomal protein S6 kinase alpha-1 (Homo sapiens) (UniProt Q15418); assay: Binding affinity to wild-type human partial length C- terminal RSK1 kinase domain 2 (P360 to L681 residues) expressed in bacterial expression system assessed as residual binding level at 10 uM by Kinomescan method relative to control
[2] = target: Tyrosine-protein kinase JAK3 (Homo sapiens) (UniProt P52333); assay: Binding affinity to wild-type human partial length JAK3 JH1 catalytic domain (I781 to S1124 residues) expressed in mammalian expression system assessed as residual binding level at 10 uM by Kinomescan method relative to control
[3] = target: Dual specificity tyrosine-phosphorylation-regulated kinase 2 (Homo sapiens) (UniProt Q92630); assay: Binding affinity to wild-type human full length DYRK2 (M1 to S528 residues) expressed in mammalian expression system assessed as residual binding level at 10 uM by Kinomescan method relative to control
[4] = target: NUAK family SNF1-like kinase 1 (Homo sapiens) (UniProt O60285); assay: Binding affinity to wild-type human partial length ARK5 (E25 to I332 residues) expressed in bacterial expression system assessed as residual binding level at 10 uM by Kinomescan method relative to control
[5] = target: SRSF protein kinase 2 (Homo sapiens) (UniProt P78362); assay: Binding affinity to wild-type human full length SRPK2 (M1 to S686 residues) expressed in bacterial expression system assessed as residual binding level at 10 uM by Kinomescan method relative to control
[6] = target: Cyclin-dependent kinase 7 (Homo sapiens) (UniProt P50613); assay: Binding affinity to wild-type human full length CDK7 (M1 to L344 residues) expressed in mammalian expression system assessed as residual binding level at 10 uM by Kinomescan method relative to control
[7] = system: Epidermal growth factor receptor (Homo sapiens), P00533 [UNDEFINED MUTATION]; assay: Binding affinity to human partial length EGFR L747-S752del/P753S mutant expressed in bacterial expression system assessed as residual binding level at 10 uM by Kinomescan method relative to control
Chain of Epidermal growth factor receptor (Homo sapiens), P00533 [UNDEFINED MUTATION] (P00533 whole entry, looked up, stated change not applied, the tested form may be a part): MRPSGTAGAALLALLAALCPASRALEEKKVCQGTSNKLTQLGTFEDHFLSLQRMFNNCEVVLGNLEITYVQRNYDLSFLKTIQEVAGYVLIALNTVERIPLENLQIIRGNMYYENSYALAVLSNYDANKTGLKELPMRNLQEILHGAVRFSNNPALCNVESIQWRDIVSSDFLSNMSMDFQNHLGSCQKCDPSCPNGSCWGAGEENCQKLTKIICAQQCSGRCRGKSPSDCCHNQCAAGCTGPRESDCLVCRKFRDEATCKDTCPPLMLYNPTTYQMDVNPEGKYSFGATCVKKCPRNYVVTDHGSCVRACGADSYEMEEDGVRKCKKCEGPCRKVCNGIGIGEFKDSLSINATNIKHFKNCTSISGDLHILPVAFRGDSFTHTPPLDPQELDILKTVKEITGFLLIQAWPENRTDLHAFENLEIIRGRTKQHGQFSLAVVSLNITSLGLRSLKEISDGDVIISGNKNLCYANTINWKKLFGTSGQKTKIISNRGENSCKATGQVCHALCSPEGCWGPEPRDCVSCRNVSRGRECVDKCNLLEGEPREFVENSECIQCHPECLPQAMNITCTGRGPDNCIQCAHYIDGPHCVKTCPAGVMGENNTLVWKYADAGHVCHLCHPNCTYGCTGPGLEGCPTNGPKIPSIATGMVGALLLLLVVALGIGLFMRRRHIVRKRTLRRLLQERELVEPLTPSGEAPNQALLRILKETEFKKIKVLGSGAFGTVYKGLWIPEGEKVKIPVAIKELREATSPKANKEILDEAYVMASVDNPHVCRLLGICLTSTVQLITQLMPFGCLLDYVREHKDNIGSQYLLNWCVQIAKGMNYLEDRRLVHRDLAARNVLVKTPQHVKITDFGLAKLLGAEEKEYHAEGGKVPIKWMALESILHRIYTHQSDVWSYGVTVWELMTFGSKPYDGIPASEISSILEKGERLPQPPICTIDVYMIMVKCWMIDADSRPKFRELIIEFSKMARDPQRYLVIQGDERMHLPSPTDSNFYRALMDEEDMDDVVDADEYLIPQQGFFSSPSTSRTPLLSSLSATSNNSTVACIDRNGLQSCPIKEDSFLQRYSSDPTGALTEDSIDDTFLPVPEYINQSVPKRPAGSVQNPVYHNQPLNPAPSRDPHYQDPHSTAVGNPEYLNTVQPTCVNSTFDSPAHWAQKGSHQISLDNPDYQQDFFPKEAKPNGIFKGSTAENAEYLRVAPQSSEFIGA

[8] = target: Ephrin type-A receptor 8 (Homo sapiens) (UniProt P29322); assay: Binding affinity to wild-type human partial length EPHA8 (Q608 to C920 residues) expressed in bacterial expression system assessed as residual binding level at 10 uM by Kinomescan method relative to control
Chain of Ephrin type-A receptor 8 (Homo sapiens) (P29322 whole entry, the tested form may be a part): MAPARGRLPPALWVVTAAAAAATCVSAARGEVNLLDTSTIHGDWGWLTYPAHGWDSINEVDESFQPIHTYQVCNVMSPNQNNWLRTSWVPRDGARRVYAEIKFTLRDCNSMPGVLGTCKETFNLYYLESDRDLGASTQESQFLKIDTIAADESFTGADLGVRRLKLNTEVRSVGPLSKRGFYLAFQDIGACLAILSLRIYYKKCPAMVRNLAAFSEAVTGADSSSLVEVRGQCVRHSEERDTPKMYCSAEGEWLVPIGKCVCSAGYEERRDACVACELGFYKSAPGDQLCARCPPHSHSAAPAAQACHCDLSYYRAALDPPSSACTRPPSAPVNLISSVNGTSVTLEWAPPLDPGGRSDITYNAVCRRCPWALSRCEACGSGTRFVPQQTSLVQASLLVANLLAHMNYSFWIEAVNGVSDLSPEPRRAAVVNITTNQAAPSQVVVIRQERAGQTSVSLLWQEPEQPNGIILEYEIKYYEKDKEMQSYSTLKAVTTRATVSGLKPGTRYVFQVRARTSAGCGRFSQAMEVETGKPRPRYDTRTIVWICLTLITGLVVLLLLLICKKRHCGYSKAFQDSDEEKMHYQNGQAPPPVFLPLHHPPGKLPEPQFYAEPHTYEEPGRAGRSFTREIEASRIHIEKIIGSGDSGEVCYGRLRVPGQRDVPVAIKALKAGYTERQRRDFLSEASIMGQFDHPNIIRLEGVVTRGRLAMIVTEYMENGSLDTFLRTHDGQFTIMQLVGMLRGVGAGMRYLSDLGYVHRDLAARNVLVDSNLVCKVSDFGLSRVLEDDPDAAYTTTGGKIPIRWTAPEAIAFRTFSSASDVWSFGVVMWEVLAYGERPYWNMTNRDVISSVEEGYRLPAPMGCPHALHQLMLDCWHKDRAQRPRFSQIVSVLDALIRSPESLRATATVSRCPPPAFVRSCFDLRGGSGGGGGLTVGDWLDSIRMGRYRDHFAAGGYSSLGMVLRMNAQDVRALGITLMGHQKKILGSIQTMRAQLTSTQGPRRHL

[9] = target: Tyrosine-protein kinase Blk (Homo sapiens) (UniProt P51451); assay: Binding affinity to wild-type human partial length BLK (G211 to L503 residues) expressed in bacterial expression system assessed as residual binding level at 10 uM by Kinomescan method relative to control
[10] = target: Mitogen-activated protein kinase kinase kinase kinase 4 (Homo sapiens) (UniProt O95819); assay: Binding affinity to wild-type human partial length MAP4K4 (M1 to R310 residues) expressed in bacterial expression system assessed as residual binding level at 10 uM by Kinomescan method relative to control
[11] = target: Epidermal growth factor receptor (Homo sapiens) (UniProt P00533); assay: Binding affinity to wild-type human partial length EGFR (R669 to V1011 residues) expressed in bacterial expression system assessed as residual binding level at 10 uM by Kinomescan method relative to control
Chain of Epidermal growth factor receptor (Homo sapiens) (P00533 whole entry, the tested form may be a part): as the sequence (P00533 whole entry, looked up, stated change not applied, the tested form may be a part) above

[12] = target: Serine/threonine-protein kinase Nek1 (Homo sapiens) (UniProt Q96PY6); assay: Binding affinity to wild-type human partial length NEK1 (M1 to K278 residues) expressed in bacterial expression system assessed as residual binding level at 10 uM by Kinomescan method relative to control
[13] = target: Serine/threonine-protein kinase 32A (Homo sapiens) (UniProt Q8WU08); assay: Binding affinity to wild-type human full length YANK1 (M1 to L396 residues) expressed in mammalian expression system assessed as residual binding level at 10 uM by Kinomescan method relative to control
[14] = target: Serine/threonine-protein kinase 32C (Homo sapiens) (UniProt Q86UX6); assay: Binding affinity to wild-type human partial length YANK3 (M68 to G486 residues) expressed in bacterial expression system assessed as residual binding level at 10 uM by Kinomescan method relative to control
Chain of Serine/threonine-protein kinase 32C (Homo sapiens) (Q86UX6 whole entry, the tested form may be a part): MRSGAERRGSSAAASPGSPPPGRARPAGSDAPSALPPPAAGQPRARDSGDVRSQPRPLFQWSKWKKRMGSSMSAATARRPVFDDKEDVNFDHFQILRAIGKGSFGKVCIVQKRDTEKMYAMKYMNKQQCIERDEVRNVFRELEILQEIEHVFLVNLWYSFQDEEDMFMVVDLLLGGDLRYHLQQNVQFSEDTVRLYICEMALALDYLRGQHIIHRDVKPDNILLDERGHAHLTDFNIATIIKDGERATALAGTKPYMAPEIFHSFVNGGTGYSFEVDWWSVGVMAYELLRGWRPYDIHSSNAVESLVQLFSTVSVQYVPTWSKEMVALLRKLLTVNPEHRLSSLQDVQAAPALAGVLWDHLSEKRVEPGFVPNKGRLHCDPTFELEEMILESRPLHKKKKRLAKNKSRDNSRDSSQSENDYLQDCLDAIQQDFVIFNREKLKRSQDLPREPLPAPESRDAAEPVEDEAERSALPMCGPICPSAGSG

[15] = target: Serine/threonine-protein kinase Chk1 (Homo sapiens) (UniProt O14757); assay: Binding affinity to wild-type human partial length CHEK1 (M1 to G289 residues) expressed in bacterial expression system assessed as residual binding level at 10 uM by Kinomescan method relative to control
[16] = system: Tyrosine-protein kinase ABL1 (Homo sapiens), P00519 [T315I]; assay: Binding affinity to human phosphorylated ABL1 T315I mutant (S229 to K512 residues) expressed in mammalian expression system assessed as residual binding level at 10 uM by Kinomescan method relative to control
[17] = target: Casein kinase I isoform alpha-like (Homo sapiens) (UniProt Q8N752); assay: Binding affinity to wild-type human full length CSNK1A1L (M1 to N337 residues) expressed in bacterial expression system assessed as residual binding level at 10 uM by Kinomescan method relative to control
Chain of Casein kinase I isoform alpha-like (Homo sapiens) (Q8N752 whole entry, the tested form may be a part, canonical isoform): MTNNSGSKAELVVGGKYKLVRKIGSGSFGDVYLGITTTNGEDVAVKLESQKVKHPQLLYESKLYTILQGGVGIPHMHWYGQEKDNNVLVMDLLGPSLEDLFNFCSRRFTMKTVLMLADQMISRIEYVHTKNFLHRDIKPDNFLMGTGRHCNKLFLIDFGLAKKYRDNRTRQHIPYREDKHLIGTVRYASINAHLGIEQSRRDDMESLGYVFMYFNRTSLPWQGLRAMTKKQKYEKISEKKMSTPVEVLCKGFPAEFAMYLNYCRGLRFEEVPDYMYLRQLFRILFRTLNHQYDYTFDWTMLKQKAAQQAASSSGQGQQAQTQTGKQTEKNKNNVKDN

[18] = target: Bone morphogenetic protein receptor type-1B (Homo sapiens) (UniProt O00238); assay: Binding affinity to wild-type human partial length BMPR1B (D178 to L502 residues) expressed in mammalian expression system assessed as residual binding level at 10 uM by Kinomescan method relative to control
[19] = target: Mitogen-activated protein kinase 12 (Homo sapiens) (UniProt P53778); assay: Binding affinity to wild-type human full length p38-gamma (M1 to L367 residues) expressed in mammalian expression system assessed as residual binding level at 10 uM by Kinomescan method relative to control
[20] = system: Mast/stem cell growth factor receptor Kit (Homo sapiens), P10721 [L576P]; assay: Binding affinity to human partial length KIT L576P mutant (Y545 to D952 residues) expressed in bacterial expression system assessed as residual binding level at 10 uM by Kinomescan method relative to control
[21] = target: Platelet-derived growth factor receptor beta (Homo sapiens) (UniProt P09619); assay: Binding affinity to wild-type human partial length PDGFRB (V582 to Y1009 residues) expressed in bacterial expression system assessed as residual binding level at 10 uM by Kinomescan method relative to control
[22] = target: Tyrosine-protein kinase FRK (Homo sapiens) (UniProt P42685); assay: Binding affinity to wild-type human partial length FRK (A215 to F503 residues) expressed in bacterial expression system assessed as residual binding level at 10 uM by Kinomescan method relative to control
[23] = target: Serine/threonine-protein kinase MARK2 (Homo sapiens) (UniProt Q7KZI7); assay: Binding affinity to wild-type human partial length MARK2 (M1 to R450 residues) expressed in bacterial expression system assessed as residual binding level at 10 uM by Kinomescan method relative to control
Chain of Serine/threonine-protein kinase MARK2 (Homo sapiens) (Q7KZI7 whole entry, the tested form may be a part): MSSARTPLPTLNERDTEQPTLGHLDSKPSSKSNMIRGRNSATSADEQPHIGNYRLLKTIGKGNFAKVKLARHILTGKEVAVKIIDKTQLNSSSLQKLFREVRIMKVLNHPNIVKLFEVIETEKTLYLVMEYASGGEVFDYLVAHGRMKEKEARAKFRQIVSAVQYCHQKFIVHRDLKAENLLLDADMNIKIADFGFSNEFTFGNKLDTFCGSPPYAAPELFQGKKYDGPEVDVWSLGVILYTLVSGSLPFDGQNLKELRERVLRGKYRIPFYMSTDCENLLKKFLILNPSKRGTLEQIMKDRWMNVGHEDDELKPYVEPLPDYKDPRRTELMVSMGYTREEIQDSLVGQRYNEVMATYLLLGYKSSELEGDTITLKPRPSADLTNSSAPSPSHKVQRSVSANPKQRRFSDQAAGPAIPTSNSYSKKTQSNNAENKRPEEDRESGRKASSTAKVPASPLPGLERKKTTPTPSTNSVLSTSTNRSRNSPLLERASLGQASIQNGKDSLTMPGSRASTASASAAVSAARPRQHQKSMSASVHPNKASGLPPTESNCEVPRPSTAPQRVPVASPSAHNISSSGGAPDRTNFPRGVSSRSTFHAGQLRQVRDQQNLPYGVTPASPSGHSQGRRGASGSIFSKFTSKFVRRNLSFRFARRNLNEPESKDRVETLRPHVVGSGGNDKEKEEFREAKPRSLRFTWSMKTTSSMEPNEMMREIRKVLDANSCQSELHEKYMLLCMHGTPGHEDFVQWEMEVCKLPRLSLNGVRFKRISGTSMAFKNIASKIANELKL

[24] = target: Mitogen-activated protein kinase kinase kinase 7 (Homo sapiens) (UniProt O43318); assay: Binding affinity to wild-type human partial length TAK1 (M1 to Q303 residues) expressed in mammalian expression system assessed as residual binding level at 10 uM by Kinomescan method relative to control

Compound: CC(C)N1C(=O)C(NCCCN(C)C)=C(c2cn(C)c3ccccc23)C1=O.Cl
- Activity [1]: 100%
- Activity [2]: 81%
- Activity [3]: 87%
- Activity [4]: 94%
- Activity [5]: 100%
- Activity [6]: 80%
- Activity [7]: 88%
- Activity [8]: 89%
- Activity [9]: 98%
- Activity [10]: 95%
- Activity [11]: 89%
- Activity [12]: 100%
- Activity [13]: 67%
- Activity [14]: 98%
- Activity [15]: 100%
- Activity [16]: 90%
- Activity [17]: 99%
- Activity [18]: 78%
- Activity [19]: 72%
- Activity [20]: 87%
- Activity [21]: 99%
- Activity [22]: 100%
- Activity [23]: 93%
- Activity [24]: 78%
